Results: PubChem BioAssay (NCI)
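A five-concentration, 48-hour dose response in 96-well plates underlies each endpoint, interpolated linearly between surrounding concentrations. TGI marks complete inhibition of growth.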

Columns and labels:
Assay in all cases: NCI-60 cell line screen, 48 h
[1] = tested on: 786-0 renal
[2] = tested on: HCT-116 colon
[3] = tested on: HS 578T breast
[4] = tested on: K-562 leukemia
[5] = tested on: MDA-MB-435
[6] = tested on: NCI-H23 lung
[7] = tested on: NCI-H460 lung
[8] = tested on: NCI/ADR-RES ovarian
[9] = tested on: OVCAR-3 ovarian
[10] = tested on: OVCAR-5 ovarian
[11] = tested on: RXF 393 renal

Compound | TGI [1] [µM] | TGI [2] [µM] | TGI [3] [µM] | TGI [4] [µM] | TGI [5] [µM] | TGI [6] [µM] | TGI [7] [µM] | TGI [8] [µM] | TGI [9] [µM] | TGI [10] [µM] | TGI [11] [µM]
CS(=O)(=O)CCC1CCC(=O)O1 (stereo not drawn) | > 100 | > 100 | > 100 | > 100 | > 100 | > 100 | > 100 | > 100 | > 100 | > 100 | > 100
N/C(=N\N=C\c1nc2ccccc2o1)c1cnccn1 | > 100 | > 100 | > 100 | > 100 | > 100 | > 100 | > 100 | > 100 | > 100 | > 100 | > 100
Cc1nc2ccccc2n1Cc1nnc(-c2ccccc2)o1 | > 100 | > 100 | > 100 | > 100 | 0.692 | > 100 | > 100 | > 100 | > 100 | > 100 | > 100
C=CCN(c1cc(O)c2c(c(C)cn2S(=O)(=O)c2ccccc2)c1[N+](=O)[O-])S(C)(=O)=O | > 100 | > 100 | > 100 | > 100 | 74.7 | > 100 | > 100 | > 100 | > 100 | > 100 | > 100
CC(C)=CCC[C@@H](C)C1=C(N)C(O)=C(C)C(=O)C1=O | > 75 | > 75 | > 75 | > 75 | > 75 | > 75 | > 75 | > 38.8 | > 75 | > 75 | > 75
NC1=C(c2nc(-c3ccccc3)cs2)C(c2ccco2)c2c(c3ccccc3oc2=O)O1 (stereo not drawn) | > 100 | > 100 | > 100 | > 100 | > 100 | > 100 | > 100 | > 100 | > 100 | > 100 | > 100
CO/C(N)=C(\C#N)N=Cc1ccsc1 | > 100 | > 100 | > 100 | > 100 | > 100 | > 100 | > 100 | > 100 | > 100 | > 100 | > 100
O=c1c2sc3ccccc3sc=2c(=O)c2c(Cl)c(Cl)c(Cl)c(Cl)c12 | > 100 | > 100 | > 100 | > 100 | > 100 | > 100 | > 100 | > 100 | > 100 | > 100 | > 100
Cc1cn([C@H]2C[C@@H](N3C(=O)c4ccccc4C3=O)[C@@H](CO[Si](C)(C)C(C)(C)C)O2)c(=O)[nH]c1=O | 81.5 | > 100 | > 100 | > 100 | > 100 | > 100 | > 100 | > 100 | > 100 | > 100 | 52
CCOc1ccc(NC(=O)C(=O)C(/C(=N/N)C(=O)OC)c2nc3ccc([N+](=O)[O-])cc3[nH]c2=O)cc1 (stereo not drawn) | > 100 | > 100 | > 100 | > 100 | > 100 | > 100 | > 100 | > 100 | > 100 | > 100 | > 100
COC(=O)c1c(C)cccc1C1CN=NC12Cc1cc(C)c(C)cc1C2=O (stereo not drawn) | > 100 | > 100 | > 100 | > 100 | > 100 | > 100 | > 100 | > 100 | > 100 | > 100 | > 100
O=C(NC1CCCCC1)c1n[nH]nc1Cl | > 100 | > 100 | > 100 | > 100 | > 100 | > 100 | > 100 | > 100 | > 100 | > 100 | > 100
CCN(CC)/[N+]([O-])=N/OS(=O)(=O)N(C)C | > 100 | > 100 | > 100 | > 100 | > 100 | > 100 | > 100 | > 100 | > 100 | > 100 | > 100
COc1cc(S(=O)(=O)Nc2nc(-c3ccc(N=Cc4ccccc4O)cc3)cs2)ccc1Cl | > 100 | > 100 | > 100 | > 100 | > 100 | > 100 | > 100 | > 100 | > 100 | > 100 | > 100
CC1=C(C(=O)NNC(=O)C[N+](C)(C)C)CC(C(=O)NNC(=O)C[N+](C)(C)C)=C(C)N1 | > 100 | > 100 | > 100 | > 100 | > 100 | > 100 | > 100 | > 100 | > 100 | > 100 | > 100
Fc1ccc2c(c1)SC1=Nc3sc4cc(F)ccc4[n+]3CN12 | 47.4 | > 100 | 38.4 | 43.9 | > 100 | 47.3 | > 100 | 63.6 | 36 | > 100 | 86.8
CCc1nc(N)nc(N)c1-c1ccc(N2CCOCC2)c(N=[N+]=[N-])c1 | > 100 | > 100 | > 100 | > 90.6 | > 100 | > 83.7 | > 100 | > 100 | > 100 | > 100 | > 100
CCCCCCC1OC23OC1CCC2C(O)CCC3O (stereo not drawn) | > 100 | > 100 | > 100 | > 100 | > 100 | > 100 | > 100 | > 100 | > 100 | > 100 | > 100
